Values of other authors, collected in patent US20100227801A1, “PHARMACEUTICAL COMPOSITIONS” (Scynexis, Inc., priority 2009, published 2010).

What was measured:
HCV = details: phase Ib clinical trial
HCV subgenomic replicon = details: subgenomic replicon system
HCV full length replicon = details: full length replicon system

SMILES	activity against HCV infected patients (HCV)	inhibition of HCV-specific RNA replication (HCV subgenomic replicon)	inhibition of HCV-specific RNA replication (HCV full length replicon)
CC(C)OC(=O)[C@H](C)NP(=O)(OC[C@H]1O[C@@H](n2ccc(=O)[nH]c2=O)[C@](C)(F)[C@@H]1O)Oc1ccccc1 (stereo partly drawn) [PSI-7851]	demonstrated activity		
C/C=C/C[C@@H](C)[C@@H](O)[C@H]1C(=O)N[C@@H](CC)C(=O)N(C)[C@H](SCCN(C)C)C(=O)N(C)[C@@H](CC(C)(C)O)C(=O)N[C@@H](C(C)C)C(=O)N(C)[C@@H](CC(C)C)C(=O)N[C@@H](C)C(=O)N[C@H](C)C(=O)N(C)[C@@H](CC(C)C)C(=O)N(C)[C@@H](CC(C)C)C(=O)N(C)[C@@H](C(C)C)C(=O)N1C [SCY-635, 3-[(R)-2-(N,N-dimethylamino)ethylthio-Sar]-4-(gammahydroxymethylleucine)cyclosporine]		potent and selective inhibition	potent and selective inhibition
